Test results taken from US20150272939A1, “Identification of Small Molecule Inhibitors of Jumonji AT-Rich Interactive Domain 1A (JARID1A) and 1B (JARID1B) Histone Demethylase” (Yale University, priority 2012, published 2015).
Structures can show the parent of a compound that is named as a salt. Where two headings read alike, the source gives them in different places.

Columns and labels:
[1] = AlphaScreen counterscreen against bio-H3K4me2 peptide in the absence of enzyme (artifact signal); conditions: for Artifact Signal (percent): effect of the compound when incubated with bio-H3K4me2 peptide (counterscreen, no enzyme); for Artifact signal: effect of the compound when it is incubated with bio-H3K4me2 peptide: counterscreen, no enzyme;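 on all read-outs here: counterscreen run without enzyme against bio-H3K4me2 peptide to remove false positive hits from the JARID1 demethylase AlphaScreen screen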
[2] = biological target: T1, JARID1B (Homo sapiens, UniProt Q9UGL1); test: FLAG-JARID1B histone demethylase assay with AlphaScreen detection (HTS and dose response); format: biochemical; conditions: for inhibition at 20 µM: read-out: Inhibitory effect (percent); for Validation result of HTS active: effect of the compound in the JARID1B AlphaScreen demethylase assay: total signal before subtraction of artifact signal;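 on Assay Signal (percent): compound tested at 20 µM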;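 on Assay − Artifact Signal (percent): compound tested at 20 µM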;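 on all read-outs here: FLAG-tagged JARID1B at 4 nM acting on a biotinylated H3K4me3 peptide, demethylation read by AlphaScreen luminescence, with hits checked against bio-H3K4me2 without enzyme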
T1 construct: The FLAG tagged full length JARID1B enzyme was expressed in Sf21 insect cells using FLAG-JARID1B baculoviruses; FLAG (N); made in house; host or cells: Sf21 insect cells (baculovirus)
T1 sequence (Q9UGL1 whole entry): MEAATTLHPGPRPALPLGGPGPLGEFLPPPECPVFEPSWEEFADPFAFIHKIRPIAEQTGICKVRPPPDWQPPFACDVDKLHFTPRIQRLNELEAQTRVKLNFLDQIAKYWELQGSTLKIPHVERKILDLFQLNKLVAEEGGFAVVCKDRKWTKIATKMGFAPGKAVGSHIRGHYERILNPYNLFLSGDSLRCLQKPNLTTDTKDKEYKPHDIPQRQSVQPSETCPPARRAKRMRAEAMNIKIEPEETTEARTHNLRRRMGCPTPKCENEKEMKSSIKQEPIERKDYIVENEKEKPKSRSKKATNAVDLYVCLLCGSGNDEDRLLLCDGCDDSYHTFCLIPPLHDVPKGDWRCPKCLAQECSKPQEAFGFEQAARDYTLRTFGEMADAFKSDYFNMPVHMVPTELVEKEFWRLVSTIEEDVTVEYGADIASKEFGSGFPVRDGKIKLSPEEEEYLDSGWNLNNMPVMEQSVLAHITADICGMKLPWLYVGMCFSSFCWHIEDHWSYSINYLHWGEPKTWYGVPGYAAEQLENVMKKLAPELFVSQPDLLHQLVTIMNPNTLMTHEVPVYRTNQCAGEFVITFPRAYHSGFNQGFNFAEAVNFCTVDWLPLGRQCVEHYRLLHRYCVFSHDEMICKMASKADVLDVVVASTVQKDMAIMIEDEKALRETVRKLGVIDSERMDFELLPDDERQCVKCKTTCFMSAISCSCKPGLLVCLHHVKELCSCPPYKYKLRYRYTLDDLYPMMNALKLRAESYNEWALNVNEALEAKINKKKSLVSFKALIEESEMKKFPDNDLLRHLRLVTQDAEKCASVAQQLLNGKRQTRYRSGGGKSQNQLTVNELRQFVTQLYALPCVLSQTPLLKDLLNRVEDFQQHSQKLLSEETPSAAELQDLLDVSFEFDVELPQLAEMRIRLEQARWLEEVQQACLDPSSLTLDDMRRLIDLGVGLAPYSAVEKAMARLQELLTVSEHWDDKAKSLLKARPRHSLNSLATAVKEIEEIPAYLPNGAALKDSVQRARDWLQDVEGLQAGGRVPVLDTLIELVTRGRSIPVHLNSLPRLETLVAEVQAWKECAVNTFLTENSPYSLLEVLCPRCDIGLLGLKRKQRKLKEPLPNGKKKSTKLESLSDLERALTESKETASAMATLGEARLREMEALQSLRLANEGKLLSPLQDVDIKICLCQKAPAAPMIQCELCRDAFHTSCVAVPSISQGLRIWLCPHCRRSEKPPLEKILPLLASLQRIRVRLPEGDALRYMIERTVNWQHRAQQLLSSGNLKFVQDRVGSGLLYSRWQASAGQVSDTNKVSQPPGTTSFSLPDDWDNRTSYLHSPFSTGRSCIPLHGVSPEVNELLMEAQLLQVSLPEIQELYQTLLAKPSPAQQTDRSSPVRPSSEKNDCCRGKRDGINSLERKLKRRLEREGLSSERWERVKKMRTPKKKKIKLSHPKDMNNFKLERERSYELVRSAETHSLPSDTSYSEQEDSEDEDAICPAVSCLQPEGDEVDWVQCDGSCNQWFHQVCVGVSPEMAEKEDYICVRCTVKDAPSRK

[3] = assay signal minus artifact signal
[4] = high-throughput screen, compound 20 μM, standard demethylase conditions (10 μM α-KG, 50 μM Fe (II))
[5] = validation of HTS actives, effect of compound in JARID1B AlphaScreen assay
[6] = high-throughput screen, compound 20 μM, IDs marked *: additional hits under reaction condition with 1 mM α-KG

| Artifact Signal (percent) [1] | Assay − Artifact Signal (percent) [2, 3] | inhibition at 20 µM [2, 4] | Assay Signal (percent) [2, 5] | Compound | further results |
| --- | --- | --- | --- | --- | --- |
| 1.42% | 54.05% | 70.4% | 55.47% | COc1ccc2nc(NCc3ccncc3)sc2c1 [YU147704] | – |
| −3.21% | 36.96% | – | 33.76% | CALCEIN [YU034124, reference compound] | Inhibitory effect (percent) [2, 4]: 60.48% |
| – | – | 80.3% | – | COc1cccc2c1C(=O)c1c(O)c3c(c(O)c1C2=O)C[C@@](O)(C(=O)CO)C[C@@H]3O[C@H]1C[C@H](N)[C@H](O)[C@H](C)O1.Cl (stereo in doubt) [YU039629, DOXORUBICIN HYDROCHLORIDE, reference compound] | Artifact signal: effect of the compound when it is incubated with bio-H3K4me2 peptide [1]: 3.92; Validation result of HTS active: effect of the compound in the JARID1B AlphaScreen demethylase assay ([2]; validation of HTS actives): 8.94 |
| 0.37% | 36.52% | – | 36.89% | Nc1nc2nc[nH]c2c(=S)[nH]1 [YU034024, THIOGUANINE, reference compound] | inhibition at 20 µM [2, 6]: 52.2% |
| −1.53% | 45.86% | 35.9% | 44.33% | CCCN1CCN(C(=O)c2ccncc2)CC1 [YU145702] | – |
| 5.94% | 8.13% | 36.5% | 14.08% | C=CCNCCCCOc1cccc(OCC)c1 [YU146294] | – |
| −2.20% | 17.82% | 34.6% | 15.61% | COc1ccc(Cl)cc1NC(=S)Nn1cnnc1 [YU148611] | – |
| 1.39% | 11.75% | 88% | 13.14% | CNC(C(=O)N(C)OC)C(C)C (stereo not shown) [YU035100] | – |
| 2.11% | 13.07% | 49.5% | 15.19% | C=CCO[C@H]1[C@H](O)[C@H](OCC=C)[C@H](O)[C@@H](OCC=C)[C@@H]1O [YU035165] | – |
| 80.56% | 15.48% | 100% | 96.04% | O=C(O[C@@H]1Cc2c(O)cc(O)cc2O[C@@H]1c1cc(O)c(O)c(O)c1)c1cc(O)c(O)c(O)c1 [YU040338, Epigallocatechin gallate, reference compound] | – |
| 14.33% | 13.76% | – | 28.09% | COc1ccc(-c2coc3cc(O)ccc3c2=O)c(O)c1O [YU155016, KOPARIN, reference compound] | inhibition at 20 µM [2, 6]: 42.3% |
| – | – | – | – | O=c1c(O)cccc2cc(O)c(O)c(O)c12 [YU155440, PURPUROGALLIN, reference compound] | Artifact signal: effect of the compound when it is incubated with bio-H3K4me2 peptide [1]: 6.39; inhibition at 20 µM [2, 6]: 42.5%; Validation result of HTS active: effect of the compound in the JARID1B AlphaScreen demethylase assay ([2]; validation of HTS actives): 13.64 |
| 0.34% | 45.66% | 39.8% | 46.00% | N#CC(=Cc1ccncc1)c1nc2ccccc2s1 [YU147088] | – |
| 4.18% | 67.88% | 74.5% | 72.06% | c1cc(CNc2ccc(N3CCOCC3)cc2)ccn1 [YU129874] | – |
| – | – | 63.8% | – | CCCCC(=O)Nc1ccc(N2CCC(C(N)=O)(N3CCCCC3)CC2)c(C(=O)O)c1 [YU208194] | Artifact signal: effect of the compound when it is incubated with bio-H3K4me2 peptide [1]: 11.63; Validation result of HTS active: effect of the compound in the JARID1B AlphaScreen demethylase assay ([2]; validation of HTS actives): 17.11 |
| 91.35% | 8.98% | 101% | 100.32% | COc1cc(C=C[N+](=O)[O-])ccc1OCc1cccc(C(=O)O)c1 (single isomer, unassigned) [YU153545] | – |

| Artifact Signal (percent) [1] | Assay − Artifact Signal (percent) [2, 3] | inhibition at 20 µM [2, 4] | Assay Signal (percent) [2, 5] | Compound | further results |
| --- | --- | --- | --- | --- | --- |
| 36.93% | 11.16% | 48.5% | 48.09% | COc1ccc(C)cc1NC(c1cccnc1)c1ccc2cccnc2c1O (stereo not shown) [YU172175] | – |
| −8.59% | 27.17% | – | 18.58% | Cc1cc(C)nc(N(C#N)C(=S)N(C)C)n1 [YU145653] | – |
| 0.99% | 54.24% | 48.7% | 55.23% | c1cc(CNc2ccc3c(c2)OCCO3)ccn1 [YU146041] | – |
| 5.37% | 52.71% | 65.8% | 58.08% | C[C@@H]1O[C@@H](OC[C@H]2OC(OC3=C(c4ccc(O)c(O)c4)Oc4cc(O)cc(O)c4C3O)[C@H](O)[C@@H](O)[C@@H]2O)[C@H](O)[C@H](O)[C@H]1O (stereo partly shown) [YU033654, RUTOSIDE (rutin), reference compound] | – |
| −2.38% | 35.20% | 47.7% | 32.81% | CC(C)NCC(O)c1ccc(O)c(O)c1 (stereo not shown) [YU033874, ISOPROTERENOL HYDROCHLORIDE, reference compound] | – |
| – | – | 32.6% | – | O=C(NCCOc1ccccc1)c1ccccc1 [YU146037] | Artifact signal: effect of the compound when it is incubated with bio-H3K4me2 peptide [1]: −1.42; Validation result of HTS active: effect of the compound in the JARID1B AlphaScreen demethylase assay ([2]; validation of HTS actives): −0.56 |
| – | – | 48.4% | – | Cc1cccc(C(=O)NNC(=S)NC(=O)CC(C)C)c1 [YU149514] | Artifact signal: effect of the compound when it is incubated with bio-H3K4me2 peptide [1]: −8.22; Validation result of HTS active: effect of the compound in the JARID1B AlphaScreen demethylase assay ([2]; validation of HTS actives): −2.24 |
| – | – | 34.2% | – | NS(=O)(=O)c1cccc(NC(=O)c2cccnc2Oc2ccccc2)c1 [YU016812] | Artifact signal: effect of the compound when it is incubated with bio-H3K4me2 peptide [1]: 13.27; Validation result of HTS active: effect of the compound in the JARID1B AlphaScreen demethylase assay ([2]; validation of HTS actives): 10.22 |
| 1.67% | 46.83% | 33.3% | 48.50% | Cc1ccsc1CNn1cnnc1S [YU145432] | – |
| 11.14% | 38.83% | 75.9% | 49.97% | C=C[C@@H](C1=CC(=O)C(OC)=C(OC)C1=O)c1ccccc1 [YU155075, 3,4-DIMETHOXY- DALBERGIONE, reference compound] | – |
| 26.96% | 9.53% | 50.2% | 36.49% | O=C(Nc1ccc(N2CCC(c3ccccc3)C2)c(C(=O)O)c1)c1cccc(Cl)c1 (stereo not shown) [YU208239] | – |
| 1.72% | 36.51% | 46.5% | 38.23% | Cc1noc2c1C(c1ccc(O)c(O)c1)C1=C(CC(C)(C)CC1=O)N2 (stereo not shown) [YU185530] | – |
| 1.27% | 28.34% | – | 27.06% | C/C1=C2/[N-][C@H]([C@H](CC(N)=O)[C@@]2(C)CCC(=O)NC[C@@H](C)OP(=O)([O-])O[C@H]2[C@@H](O)[C@@H](n3cnc4cc(C)c(C)cc43)O[C@@H]2CO)[C@]2(C)N=C(/C(C)=C3N=C(/C=C4N=C1[C@@H](CCC(N)=O)C\4(C)C)[C@@H](CCC(N)=O)[C@]\3(C)CC(N)=O)[C@@H](CCC(N)=O)[C@]2(C)CC(N)=O.[Co] [YU034137, COBALAMINE, reference compound] | Inhibitory effect (percent) [2, 4]: 63.90% |
| 8.17% | 42.15% | 36.9% | 50.33% | COc1ccc(CNn2c(C)nnc2S)cc1 [YU146438] | – |
| – | – | – | – | O=C([O-])c1ccccc1-c1c2cc(Br)c(=O)cc-2oc2[c]([Hg][OH])c([O-])c(Br)cc12 [YU034068, MERBROMIN, reference compound] | Artifact signal: effect of the compound when it is incubated with bio-H3K4me2 peptide [1]: −1.81; Inhibitory effect (percent) [2, 4]: 99.27%; Validation result of HTS active: effect of the compound in the JARID1B AlphaScreen demethylase assay ([2]; validation of HTS actives): 3.43 |

| Compound | Artifact Signal (percent) [1] | Assay − Artifact Signal (percent) [2, 3] | inhibition at 20 µM [2, 4] | Assay Signal (percent) [2, 5] | further results |
| --- | --- | --- | --- | --- | --- |
| CC(=O)C(C)O[Si](C(C)C)(C(C)C)C(C)C (stereo not shown) [YU035082] | 6.78% | 15.58% | – | 22.36% | inhibition at 20 µM [2, 6]: 95.8% |
| N#CC(=Cc1ccc(O)c(O)c1)C(N)=O (single isomer, unassigned) [YU154833, TYRPHOSTIN 46, reference compound] | 4.32% | 46.11% | 76.8% | 50.42% | – |
| O=[N+]([O-])c1cc(O)c(O)c([N+](=O)[O-])c1 [YU034463, 3,5-DINITROCATECHOL, reference compound] | 11.72% | 27.05% | – | 38.78% | Inhibitory effect (percent) [2, 4]: 49.87% |
| CCC1=C[C@H]2CN(C1)Cc1c([nH]c3ccccc13)[C@@](C(=O)OC)(c1cc3c(cc1OC)N(C)[C@H]1[C@@](O)(C(=O)OC)[C@H](OC(C)=O)[C@]4(CC)C=CC[N@]5CC[C@]31[C@@H]54)C2.O=C(O)C(O)C(O)C(=O)O [YU221030, V[…], reference compound] | 18.13% | – | – | – | Assay Signal (percent) [2]: 38.77%; Assay − Artifact Signal (percent) [2]: 20.64%; inhibition at 20 µM [2]: 42.2% |
| C[n+]1cc2c3c(ccc2c2ccc4cc5c(cc4c21)OCO5)OCO3 [YU033662, SANGUINARINE SULFATE, reference compound] | 9.21% | 58.64% | – | 67.85% | Inhibitory effect (percent) [2, 4]: 86.66% |
